Experimental data as given in ChEMBL document CHEMBL1697781, “Assessment of the health effects of chemicals in humans: II. Construction of an adverse effects database for QSAR modeling” (Curr Drug Discov Technol, 2004).

Columns and labels:
Details in all cases: human; call rule not given here
[1] = test system: Hepatotoxicity; test: FDA HLAED, liver enzyme composite activity
[2] = test system: Hepatotoxicity; test: FDA HLAED, alkaline phosphatase increase
[3] = test system: Hepatotoxicity; test: FDA HLAED, serum glutamic oxaloacetic transaminase (SGOT) increase
[4] = test system: Hepatotoxicity; test: FDA HLAED, serum glutamic pyruvic transaminase (SGPT) increase
[5] = test system: Hepatotoxicity; test: FDA HLAED, lactate dehydrogenase (LDH) increase
[6] = test system: Hepatotoxicity; test: FDA HLAED, gamma-glutamyl transferase (GGT) increase
For GGT Increase - Index Value in this document: reference of the scale not given here.
For LDH Increase - Index Value in this document: reference of the scale not given here.

Structure (SMILES)	Composite Activity - Active [1]	Composite Activity - Marginal [1]	Composite Activity - Score [1]	Alkaline Phosphatase Increase - Activity Score [2]	Alkaline Phosphatase Increase - Index Value [2]	Alkaline Phosphatase Increase - Number of Reports [2]	SGOT Increase - Activity Score [3]	SGOT Increase - Index Value [3]	SGOT Increase - Number of Reports [3]	SGPT Increase - Activity Score [4]	SGPT Increase - Index Value [4]	SGPT Increase - Number of Reports [4]	LDH Increase - Activity Score [5]	LDH Increase - Index Value [5]	LDH Increase - Number of Reports [5]	GGT Increase - Activity Score [6]	GGT Increase - Index Value [6]	GGT Increase - Number of Reports [6]	other results
COc1cc(NCc2ccc3nc(N)nc(N)c3c2C)cc(OC)c1OC [TRIMETREXATE]	1	0	Inactive	Inactive	38.8	< 4	Active	77.5	< 4	Inactive	38.8	< 4	Inactive	38.8	< 4	Inactive	0	< 4	–
CC(CN(C)C)CN1c2ccccc2CCc2ccccc21 (stereo unspecified) [TRIMIPRAMINE]	0	0	Inactive	Inactive	0	< 4	Inactive	0	< 4	Inactive	0	< 4	Inactive	0	< 4	Inactive	0	< 4	–
C[C@H](CCC(=O)O)[C@H]1CC[C@H]2[C@@H]3[C@@H](O)C[C@@H]4C[C@H](O)CC[C@]4(C)[C@H]3CC[C@]12C [URSODIOL]	2	0	Active	Active	14.5	>= 4	Active	9.7	>= 4	Inactive	4.8	< 4	Inactive	4.8	< 4	Inactive	4.8	< 4	–
CC(C)[C@H](N)C(=O)OCCOCn1cnc2c(=O)[nH]c(N)nc21 [VALACYCLOVIR]	0	0	Inactive	Inactive	No Shipping Units	< 4	Inactive	No Shipping Units	< 4	Inactive	No Shipping Units	< 4	Inactive	0	< 4	Inactive	0	< 4	–
CC(=O)O[C@H]1C[C@@H]2CC[C@@H]3[C@H](CC[C@@]4(C)[C@H]3C[C@H]([N+]3(C)CCCCC3)[C@@H]4OC(C)=O)[C@@]2(C)C[C@@H]1N1CCCCC1.[Br-] [VECURONIUM BROMIDE]	0	0	Inactive	Inactive	0	< 4	Inactive	1	< 4	Inactive	1	< 4	Inactive	1	< 4	Inactive	0	< 4	–
COc1ccc(C(CN(C)C)C2(O)CCCCC2)cc1 (stereo unspecified) [VENLAFAXINE]	0	0	Inactive	Inactive	1.3	>= 4	Inactive	2.7	>= 4	Inactive	2.3	>= 4	Inactive	0.7	>= 4	Inactive	0.9	>= 4	–
CCC1=C[C@@H]2CN(C1)Cc1c([nH]c3ccccc13)[C@@](C(=O)OC)(c1cc3c(cc1OC)N(C)[C@H]1[C@@](O)(C(=O)OC)[C@H](OC(C)=O)[C@]4(CC)C=CCN5CC[C@]31[C@@H]54)C2 [VINORELBINE]	1	0	Inactive	Inactive	2.8	< 4	Inactive	0.9	< 4	Inactive	1.9	< 4	Active	4.7	>= 4	Inactive	0.9	< 4	–
COc1cc(C(=O)NS(=O)(=O)c2ccccc2C)ccc1Cc1cn(C)c2ccc(NC(=O)OC3CCCC3)cc12 [ZAFIRLUKAST]	2	1	Active	Inactive	2.6	>= 4	Active	10.1	>= 4	Active	9.5	>= 4	Marginally Active	3.7	>= 4	Inactive	0.5	< 4	–
Nc1ccn([C@H]2CC[C@@H](CO)O2)c(=O)n1 [ZALCITABINE]	–	–	–	Inactive	2.9	< 4	Active	5.7	>= 4	Inactive	2.9	< 4	Inactive	1.4	< 4	Inactive	1.4	< 4	Composite Activity - Active ([1]; Liver): 1; Composite Activity - Marginal ([1]; Liver): 0; Composite Activity - Score ([1]; Liver): Inactive
Cc1cn([C@H]2C[C@H](N=[N+]=[N-])[C@@H](CO)O2)c(=O)[nH]c1=O [ZIDOVUDINE]	4	0	Active	Active	5.1	>= 4	Active	12.7	>= 4	Active	4.8	>= 4	Active	5.7	>= 4	Inactive	0.9	< 4	–
CC(c1cc2ccccc2s1)N(O)C(N)=O (stereo unspecified) [ZILEUTON]	3	0	Active	Active	29.7	>= 4	Active	47.5	>= 4	Active	65.3	>= 4	Inactive	11.9	< 4	Inactive	5.9	< 4	–
Cc1ccc(-c2nc3ccc(C)cn3c2CC(=O)N(C)C)cc1 [ZOLPIDEM]	0	4	Marginally Active	Marginally Active	3	>= 4	Marginally Active	3.8	>= 4	Marginally Active	3.9	>= 4	Inactive	0.7	>= 4	Marginally Active	3	>= 4	–
